# Test results: PMC6521598, “Identification of GLPG/ABBV-2737, a Novel Class of Corrector, Which Exerts Functional Synergy With Other CFTR Modulators” (Frontiers in Pharmacology, 2019)
# Columns and labels:
# [1] = biological target: T1, P67L CFTR (Homo sapiens, UniProt P13569, P67L); assay: YFP halide assay (YHA), HEK293, P67L; format: cell-based; conditions: for rescue of P67L: YFP halide assay
# T1 construct: expressed in transfected cells; host or cells: HEK293
# Description: (§1) HEK293 cells were transfected with 10–80 ng of plasmid encoding F508del, E92K, P67L, V232D, F508del/G550E, F508del/I539T or wild type CFTR and 20 ng of plasmid encoding YFP (H148Q/I152L/F47L) using jetPEI (Polyplus transfection). Directly after transfection, cells were seeded in black 96-well plates coated with poly-D-lysine at a density of 70,000 cells per well. The next day, cells were treated with corrector(s) for 24 h. After this incubation period, cells were washed twice with DPBS with Ca^2+ and Mg^2+. Subsequently, cells were treated with 10 μM forskolin and the desired concentration of potentiator in a volume of 40 μl and incubated at room temperature for 10 min, a time point optimized in previous experiments resulting in a good window (positive control/negative control > 2) and signal to background ratio. YFP fluorescence was measured using an EnVision plate reader (PerkinElmer). […] The excitation wavelength was 485 nm and the emission wavelength 530 nm. The capacity of potentiators to increase CFTR channel function was expressed as 1-(fluorescence 7 s after NaI addition (F)/fluorescence before NaI addition (F0)). For the different mutants, data was normalized using the formula: normalized response = 100^∗(absolute response – negative control response)/(GLPG2222 response – negative response) as such, GLPG2222 response corresponds to 100. Concentration–response experiments were fitted using a 4 parameter hill function of the form Response = Bottom + (Top - Bottom)/(1 + (EC50/concentration) ˆHillSlope)) to determine EC50 values.
# (§2) FIGURE 7 YHA assay using CFTR mutant overexpression in HEK293 cells. Cells were incubated for 24 h with either a dose range of GLPG2737, GLPG2222 or VX809. After washing, cells were triggered with forskolin (50 μM for F508del, E92K, V232D and F508del/I539T, 10 μM for P67L or 1 μM for F508del/G550E) and 0.5 μM potentiator and YFP fluorescence was measured. Efficacy was determined using 10 μM GLPG2222 as positive control and DMSO as negative control in the assay. (A) Table with potency and efficacy obtained for the mutants and compounds tested. (B) Dose–response curves of GLPG2737. (C) Dose–response curves of GLPG2222. (D) Dose–response curves of VX-809. For panels (B–D), E92K mutant is represented in black, F508del mutant in blue, F508del/I539T mutant in green and V232D mutant in gray, all concentrations are tested in duplicate. […] All values containing these digits are best readings, e.g. GLPG2222 P67L EC50 206 (± 98), GLPG2222 E92K EC50 503 (± 109), VX809 F508del EC50 286 (± 35), VX809 P67L % of reference 88 (± 3), GLPG2737 F508del % of reference 138 (± 9). / GLPG2737, EC50 for P67L and E92K is printed as NA; left out because no value is given. / VX809, E92K EC50 error: 17, a digit may be missing.
# [2] = biological target: F508del CFTR (Homo sapiens, UniProt P13569, DEL508-508); assay: Patch-clamp single-channel recording, inside-out patches of CHO cells; format: cell-based, hamster
# Sequence of F508del CFTR (P13569 with tags, fused parts or gaps DEL508-508): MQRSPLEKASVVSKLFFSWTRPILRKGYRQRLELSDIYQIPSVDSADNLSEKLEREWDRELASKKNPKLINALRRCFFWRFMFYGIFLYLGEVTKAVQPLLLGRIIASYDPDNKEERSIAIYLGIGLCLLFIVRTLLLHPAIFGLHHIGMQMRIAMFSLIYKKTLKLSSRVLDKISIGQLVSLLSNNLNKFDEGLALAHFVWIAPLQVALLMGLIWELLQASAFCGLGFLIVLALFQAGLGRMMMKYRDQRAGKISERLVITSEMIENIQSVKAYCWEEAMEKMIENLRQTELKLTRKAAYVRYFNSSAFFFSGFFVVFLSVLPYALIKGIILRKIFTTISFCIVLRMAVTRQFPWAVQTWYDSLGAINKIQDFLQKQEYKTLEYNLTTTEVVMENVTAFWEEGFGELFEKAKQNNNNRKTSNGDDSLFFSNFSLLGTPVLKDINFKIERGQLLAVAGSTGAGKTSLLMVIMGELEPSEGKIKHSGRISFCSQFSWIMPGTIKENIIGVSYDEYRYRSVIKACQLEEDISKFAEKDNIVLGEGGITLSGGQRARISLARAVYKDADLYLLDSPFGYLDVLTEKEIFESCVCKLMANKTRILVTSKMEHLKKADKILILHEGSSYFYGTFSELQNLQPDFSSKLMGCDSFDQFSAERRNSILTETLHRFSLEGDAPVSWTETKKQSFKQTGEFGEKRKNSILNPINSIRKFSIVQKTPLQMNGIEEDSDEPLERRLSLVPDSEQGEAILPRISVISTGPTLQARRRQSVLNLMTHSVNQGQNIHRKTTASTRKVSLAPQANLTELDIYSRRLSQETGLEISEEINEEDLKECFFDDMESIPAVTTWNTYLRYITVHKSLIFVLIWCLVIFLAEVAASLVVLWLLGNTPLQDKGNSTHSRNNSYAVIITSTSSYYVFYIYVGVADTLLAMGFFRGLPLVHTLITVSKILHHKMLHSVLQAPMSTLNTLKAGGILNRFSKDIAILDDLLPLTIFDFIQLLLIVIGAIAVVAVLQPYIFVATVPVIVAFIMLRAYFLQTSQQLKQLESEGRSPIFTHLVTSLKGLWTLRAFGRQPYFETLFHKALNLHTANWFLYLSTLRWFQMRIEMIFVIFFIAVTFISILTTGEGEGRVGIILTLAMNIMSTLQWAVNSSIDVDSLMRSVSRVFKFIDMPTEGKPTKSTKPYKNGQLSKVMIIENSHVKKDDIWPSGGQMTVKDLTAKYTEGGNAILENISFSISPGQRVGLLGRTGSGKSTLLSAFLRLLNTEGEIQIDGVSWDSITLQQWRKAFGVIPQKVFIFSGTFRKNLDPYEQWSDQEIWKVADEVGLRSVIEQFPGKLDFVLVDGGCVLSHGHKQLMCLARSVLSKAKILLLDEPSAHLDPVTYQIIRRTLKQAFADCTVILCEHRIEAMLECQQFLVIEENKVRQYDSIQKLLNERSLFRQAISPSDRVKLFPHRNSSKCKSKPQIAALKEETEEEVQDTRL
# Description: A more complete description of the patch-clamp methodology can be found in a recent publication ([Lin et al., 2016]). Briefly, CHO (Chinese Hamster Ovary) cells were transiently transfected with pcDNA plasmids containing a F508del CFTR construct and pEGFP-C3. After transfection, cells were trypsinized and plated onto 35 mm tissue culture dishes dispersed with sterilized glass chips. Electrophysiological experiments were performed 3–7 days following transfection.
# Patch-clamp experiments were performed at room temperature with an EPC-9 patch clamp amplifier (HEKA Instruments, Holliston, MA, United States). Recording microelectrodes were made from borosilicate capillary glass with a two-stage pipette puller (Narishige, Tokyo, Japan). The pipette tip was polished with a home-made microforge before use. The pipette solution contained (in mM) 140 NMDG (N-methyl-D-glucamine)-Cl (Fisher Biotec), 2 MgCl2 (Fisher Biotec, Perth, WA, Australia), 5 CaCl2 (Fisher Biotec), and 10 HEPES (Fisher Biotec), pH 7.4, with NMDG (see [Lin et al., 2016] for details). The pipette resistance when filled with the regular pipette solution was 3–5 MΩ. Once the tip of the pipette and the cell membrane established GΩ resistance, the electrode was quickly pulled away from the cell to form an inside-out patch, where the cytosolic side of the membrane was exposed to the perfusion solution. Cells were perfused with a bath solution having (in mM) 145 NaCl (Fisher Biotec), 5 KCl (Fisher Biotec), 2 MgCl2, 1 CaCl2, 5 glucose (Fisher Biotec), 5 HEPES, and 20 sucrose (Fisher Biotec), pH 7.4, with NaOH (Fisher Biotec). After establishing an inside-out configuration, the patch was perfused with a standard perfusion solution (i.e., intracellular solution) containing (in mM) 150 NMDG-Cl, 2 MgCl2, 10 EGTA (Fisher Biotec), and 8 Tris (Fisher Biotec), pH 7.4, with NMDG (see [Lin et al., 2016] for details) containing the catalytic subunit of protein kinase A (PKA) and 2 mM ATP. Once the phosphorylation-dependent activation of CFTR reached a plateau, 10 μM GLPG3067 was applied in the continuous presence of 2 mM ATP until a steady state was attained.
# Microscopic kinetic analysis was performed with a program provided by Dr. László Csanády (Semmelweis University, Budapest, Hungary) ([Csanády, 2000]). Experiments were performed four to five times and averages and SEM were calculated. The resulting Open probability (Po) values and single-channel kinetic parameters were compared with paired t-test (Excel, Microsoft); P < 0.05 is considered statistically significant.
# [3] = biological target: T2, V232D CFTR (Homo sapiens, UniProt P13569, V232D); assay: YFP halide assay (YHA), HEK293, V232D; format: cell-based; conditions: 24 h; 50 μM forskolin + 0.5 μM potentiator
# T2 construct: expressed in transfected cells; host or cells: HEK293
# T2 sequence (P13569 whole entry V232D): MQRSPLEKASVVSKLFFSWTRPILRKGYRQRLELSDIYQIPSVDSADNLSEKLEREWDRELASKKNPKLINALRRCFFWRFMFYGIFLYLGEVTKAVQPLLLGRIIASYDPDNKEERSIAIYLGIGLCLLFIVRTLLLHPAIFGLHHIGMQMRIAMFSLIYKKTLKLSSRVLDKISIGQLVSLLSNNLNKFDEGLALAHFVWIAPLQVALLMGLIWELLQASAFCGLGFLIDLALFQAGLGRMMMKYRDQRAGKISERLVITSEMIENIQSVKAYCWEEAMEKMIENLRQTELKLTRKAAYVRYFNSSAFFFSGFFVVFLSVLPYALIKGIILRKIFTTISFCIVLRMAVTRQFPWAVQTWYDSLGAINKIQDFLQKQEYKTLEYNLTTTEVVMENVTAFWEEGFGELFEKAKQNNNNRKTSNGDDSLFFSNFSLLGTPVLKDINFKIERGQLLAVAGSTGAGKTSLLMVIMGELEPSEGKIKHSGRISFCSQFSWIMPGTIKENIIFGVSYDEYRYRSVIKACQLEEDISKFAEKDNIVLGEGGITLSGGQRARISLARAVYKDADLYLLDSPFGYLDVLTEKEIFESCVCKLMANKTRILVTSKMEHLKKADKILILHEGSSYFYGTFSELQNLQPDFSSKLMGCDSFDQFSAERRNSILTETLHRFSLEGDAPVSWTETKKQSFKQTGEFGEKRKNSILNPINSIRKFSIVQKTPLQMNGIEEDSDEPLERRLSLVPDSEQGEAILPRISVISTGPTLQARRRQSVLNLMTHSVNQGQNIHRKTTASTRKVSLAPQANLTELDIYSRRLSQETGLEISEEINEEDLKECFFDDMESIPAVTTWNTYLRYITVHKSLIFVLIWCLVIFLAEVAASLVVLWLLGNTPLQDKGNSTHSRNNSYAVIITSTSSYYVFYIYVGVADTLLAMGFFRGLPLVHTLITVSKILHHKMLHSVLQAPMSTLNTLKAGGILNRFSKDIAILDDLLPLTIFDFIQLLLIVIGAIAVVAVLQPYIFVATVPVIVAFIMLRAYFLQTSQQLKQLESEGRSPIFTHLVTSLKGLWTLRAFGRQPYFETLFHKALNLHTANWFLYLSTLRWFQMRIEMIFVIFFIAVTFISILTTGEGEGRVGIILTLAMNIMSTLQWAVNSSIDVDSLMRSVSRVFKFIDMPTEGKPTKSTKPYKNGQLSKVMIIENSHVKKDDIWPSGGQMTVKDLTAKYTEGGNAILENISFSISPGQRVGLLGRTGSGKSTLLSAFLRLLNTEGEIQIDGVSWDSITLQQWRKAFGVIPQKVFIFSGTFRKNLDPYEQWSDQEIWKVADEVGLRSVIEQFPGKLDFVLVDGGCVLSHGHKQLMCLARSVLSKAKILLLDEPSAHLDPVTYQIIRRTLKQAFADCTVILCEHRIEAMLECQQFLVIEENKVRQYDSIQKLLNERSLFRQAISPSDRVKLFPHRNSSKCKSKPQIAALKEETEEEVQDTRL
# Description: as §1, with “For the different mutants, data was normalized using the formula: normalized response = 100^∗(absolute response – negative control response)/(GLPG2222 response – negative response) as such, GLPG2222 response corresponds to 100. Concentration–response experiments were fitted using a 4 parameter hill function of the form Response = Bottom + (Top - Bottom)/(1 + (EC50/concentration) ˆHillSlope)) to determine EC50 values.” left out
# FIGURE 7 YHA assay using CFTR mutant overexpression in HEK293 cells. […] After washing, cells were triggered with forskolin (50 μM for F508del, E92K, V232D and F508del/I539T, 10 μM for P67L or 1 μM for F508del/G550E) and 0.5 μM potentiator and YFP fluorescence was measured. Efficacy was determined using 10 μM GLPG2222 as positive control and DMSO as negative control in the assay. […] All values containing these digits are best readings, e.g. GLPG2222 P67L EC50 206 (± 98), GLPG2222 E92K EC50 503 (± 109), VX809 F508del EC50 286 (± 35), VX809 P67L % of reference 88 (± 3), GLPG2737 F508del % of reference 138 (± 9). / GLPG2737, EC50 for P67L and E92K is printed as NA; left out because no value is given. / VX809, E92K EC50 error: 17, a digit may be missing.
# [4] = biological target: T3, A455E CFTR (Homo sapiens, UniProt P13569, A455E); assay: YFP halide assay (YHA), HEK293, A455E; format: cell-based; conditions: 24 h; forskolin + 0.5 μM potentiator
# T3 construct: expressed in transfected cells; host or cells: HEK293
# T3 sequence (P13569 whole entry A455E): as the sequence (P13569 whole entry V232D) above, with D232V, A455E counted along it
# [5] = biological target: T4, E92K CFTR (Homo sapiens, UniProt P13569, E92K); assay: YFP halide assay (YHA), HEK293, E92K; format: cell-based; conditions: for rescue of E92K: YFP halide assay
# T4 construct: expressed in transfected cells; host or cells: HEK293
# T4 sequence (P13569 whole entry E92K): as the sequence (P13569 whole entry V232D) above, with E92K, D232V counted along it
# Description: as §1, §2
# [6] = cells treated 24 h with 0.5 μM GLPG2222 only, n = 3
# [7] = acute addition of 1 μM GLPG2737 on top of 0.5 μM GLPG2222 + 10 μM GLPG3067
# [8] = cells pre-treated 24 h with 0.5 μM GLPG2222 + 1 μM GLPG2737 + 10 μM GLPG3067, compounds in recording solution
# [9] = same pre-treatment, after washout of GLPG2737 (GLPG2222 + GLPG3067 present)
# T1 sequence (P13569 whole entry P67L): as the sequence (P13569 whole entry V232D) above, with P67L, D232V counted along it
"EC50 ([1]; 24 h, 10 μM forskolin + 0.5 μM potentiator) [µM]",rescue of P67L [1],"Po [2, 6]","τc [2, 6] [s]","τo [2, 6] [s]",EC50 [3] [µM],EC50 [4] [µM],"EC50 ([5]; 24 h, 50 μM forskolin + 0.5 μM potentiator) [µM]",rescue of E92K [5],"Po [2, 7]","τc [2, 7] [s]","τo [2, 7] [s]","apparent Po [2, 8]","τc [2, 8] [s]","τo [2, 8] [s]","Po [2, 9]","τc [2, 9] [s]","τo [2, 9] [s]",Structure (SMILES)
0.206,could be rescued,0.04 ± 0.01,6.88 ± 3.36,0.25 ± 0.08,0.014,0.033,0.503,could be rescued,–,–,–,–,–,–,–,–,–,"O=C(O)c1ccc([C@H]2C[C@@H](NC(=O)C3(c4ccc5c(c4)OC(F)(F)O5)CC3)c3ccc(OC(F)F)cc3O2)cc1 [GLPG2222, 4-[(2 R,4 R)-4-({[1-(2,2-Difluoro-1,3-benzodioxol-5-yl)cyclopropyl]carbonyl}amino)-7-(difluoromethoxy)-3,4-dihydro-2 H -chromen-2-yl]benzoic Acid]"
–,absence of rescue,–,–,–,0.161,> 2.64,–,absence of rescue,0.15 ± 0.01,6.42 ± 1.24,1.37 ± 0.33,0.21 ± 0.003,10.35 ± 2.22,2.68 ± 0.59,0.63 ± 0.05,1.89 ± 0.38,3.28 ± 0.09,COC1CCN(C2CCN(c3cc(C(=O)NS(=O)(=O)N(C)C)nc4c3c(C3CCC3)nn4-c3ccc(F)cc3)CC2)CC1 [GLPG2737]
